# Results published in US20240174690A1, “ANNULATED 2-AMINO-3-CYANO THIOPHENES AND DERIVATIVES FOR THE TREATMENT OF CANCER” (BOEHRINGER INGELHEIM INTERNATIONAL GMBH, priority 2021, published 2024).
# pIC50: −log10 of the molar value. Where two headings read alike, the source gives them in different places.
# Tests used:
# [1] = system: KRAS G12V-dependent Ba/F3 cells; test: Ba/F3 proliferation assay, KRAS G12V; format: cell-based; settings: Mus musculus, BaF3, 72 h, AlamarBlue;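 note: proliferation IC50 in KRAS G12V-dependent Ba/F3 cells read by AlamarBlue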
# How it was run: (§1)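 IL-3-independent Ba/F3 lines driven by transduced KRAS G12C, G12D or G12V, with puromycin withdrawn about ten days before testing. Viability after compound treatment measured by AlamarBlue fluorescence in duplicate, and values derived by curve fitting.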
# [2] = Solubility measurement (DMSO solution method), McIlvaine buffer pH 4.5 or 6.8; format: physicochemical; settings: aqueous buffer, kinetic from dmso stock, DMSO stock diluted to 250 μM, 24 h shaking at ambient temperature
# How it was run: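 Filtrate concentration by LC-UV, calibrated to a known-concentration reference dissolved completely in acetonitrile/water (1:1). Samples came from 250 µM final dilutions of DMSO stock in pH 4.5 or 6.8 McIlvaine buffer, shaken 24 h at ambient temperature, then filtered.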
# NCI-H358 cells = test: NCI-H358 CTG proliferation assay (120 h) (NSCLC, G12C); format: cell-based, human; settings: Homo sapiens
# How it was run: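 IC50 values derive from four-parameter nonlinear regression of CellTiter-Glo viability (RLU relative to DMSO wells) after 120 h of exposure. Cells were plated in RPMI-1640 + 10% FCS at 2000 per well (assay 1) or 200 per well (assay 2). Untreated cells were measured at compound addition as T0.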
# [3] = Plasma protein binding assay (PPB), equilibrium dialysis, 10% FCS in PBS; format: in vitro ADME; settings: bovine, read-out: PPB 10% FCS (% fu)
# How it was run: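 Test compound (1-10 μmol/L) in 10% FCS in PBS was dialysed for 3-5 h at 37° C versus PBS ± dextran across a semipermeable membrane. LC-MS of both compartments after protein precipitation gave Cserum and Cbuffer, from which the unbound fraction fu was derived.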
# [4] = Metabolic (microsomal) stability assay, human liver microsomes (HLM); format: in vitro ADME; settings: predicted clearance as percent of liver blood flow, 1 μM
# How it was run: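 LC-MS/MS tracked parent disappearance at 0, 5, 15, 30 and 60 min in NADPH-initiated incubations with 1 mg/mL human microsomal protein and 1 μM compound at 37°C, pH 7.5. First-order fits gave intrinsic clearance, which was scaled up and reported as % QH. NADPH-free controls were also run.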
# [5] = system: KRAS G12C-dependent Ba/F3 cells; test: Ba/F3 proliferation assay, KRAS G12C; format: cell-based; settings: Mus musculus, BaF3, 72 h, AlamarBlue
# How it was run: as §1
# [6] = McIlvaine buffer pH 4.5, read-out: solubility pH 4.5
# [7] = McIlvaine buffer pH 6.8, read-out: solubility pH 6.8
# [8] = assay 2, CTG, read-out: H358 (assay 2) IC50
Compound,pIC50 [1],"solubility at 24 h [2, 6] [µg/mL]","solubility at 24 h [2, 7] [µg/mL]",pIC50 (NCI-H358 cells; [8]),fraction unbound [3],HLM QH [4] [%],pIC50 [5],"pIC50 (NCI-H358 cells; assay 1, CTG, read-out: H358 (assay 1) IC50)"
CC(C)NC(=O)Cc1ccn(-c2cc(O[C@@H](C)[C@@H]3CCCN3C)nc(-c3noc4c3CCC[C@@]43CCCc4sc(N)c(C#N)c43)n2)n1 [II-182],8.52,> 148,86,8.52,0.13,35,8.30,
C[C@H](Oc1cc(-n2cc(C(=O)N(C)C)nn2)nc(-c2noc3c2CCC[C@@]32CCCc3sc(N)c(C#N)c32)n1)[C@@H]1CCCN1C [II-132],8.22,117,100,6.49,0.31,36,8.00,
C[C@H](Oc1cc(-n2nccc2-c2ccncc2)nc(-c2noc3c2CCC[C@@]32CCCc3sc(N)c(C#N)c32)n1)[C@@H]1CCCN1C [II-131],7.72,,,6.56,0.01,<24,7.80,
C[C@H](Oc1cc(N2CCNC[C@@]23CCOC3)nc(-c2onc3c2CCC[C@@]32CCCc3sc(N)c(C#N)c32)n1)[C@@H]1CCCN1C [I-13],6.09,> 148,> 150,5.37,0.21,<24,5.81,
C[C@H](Oc1cc(-n2ccc(-c3cn(C4CCOCC4)nn3)n2)nc(-c2noc3c2CCC[C@@]32CCCc3sc(N)c(C#N)c32)n1)[C@@H]1CCCN1C [II-210],8.70,5,< 1,8.70,0.02,<24,8.70,
C[C@H](Oc1cc(-n2ccc(-c3cnccn3)n2)nc(-c2noc3c2CCC[C@@]32CCCc3sc(N)c(C#N)c32)n1)[C@@H]1CCCN1C [II-130],8.22,< 1,< 1,7.55,0.03,<24,8.22,7.60
C[C@H](Oc1cc(-n2cnc(C(=O)N(C)C)c2)nc(-c2noc3c2CCC[C@@]32CCCc3sc(N)c(C#N)c32)n1)[C@@H]1CCCN1C [II-126],7.59,123,104,5.77,0.38,25,7.49,
CO[C@H]1CCN(C)[C@@H]1[C@H](C)Oc1cc(-n2ccc(C(=O)N[C@@H]3CCOC3)n2)nc(-c2noc3c2CCC[C@@]32CCCc3sc(N)c(C#N)c32)n1 [II-197],9.00,> 173,5,9.00,0.04,69,8.70,
C[C@H](Oc1cc(-n2cc3ccn([C@@H](C)c4ccccn4)c(=O)c3n2)nc(-c2noc3c2CCC[C@@]32CCCc3sc(N)c(C#N)c32)n1)[C@@H]1CCCN1C [II-205],8.22,,,7.74,0.06,<24,7.72,
CC(C)N1CCCN(c2cc(-n3ccnc3)nc(-c3noc4c3CCC[C@@]43CCCc4sc(N)c(C#N)c43)n2)[C@@H](C)C1 [II-169],7.21,> 124,13,6.23,,39,6.97,
C[C@H]1CNCCCN1c1cc(-n2ccnc2)nc(-c2noc3c2CCC[C@@]32CCCc3sc(N)c(C#N)c32)n1 [II-142],5.75,86,10,4.97,,,5.66,
C[C@H](NC(=O)c1ccn(-c2cc(O[C@@H](C)[C@@H]3CCCN3C)nc(-c3noc4c3CCC[C@@]43CCCc4sc(N)c(C#N)c43)n2)n1)c1ccccn1 [II-191],,73,12,8.52,0.03,32,8.52,

# Continued, values first:
pIC50 [1],"solubility at 24 h [2, 6] [µg/mL]","solubility at 24 h [2, 7] [µg/mL]",pIC50 (NCI-H358 cells; [8]),fraction unbound [3],HLM QH [4] [%],pIC50 [5],"pIC50 (NCI-H358 cells; assay 1, CTG, read-out: H358 (assay 1) IC50)",Compound
9.00,> 128,6,8.22,0.07,41,8.52,,CO[C@H]1CCN(C)[C@@H]1[C@H](C)Oc1cc(-n2ccc(C(N)=O)n2)nc(-c2noc3c2CCC[C@@]32CCCc3sc(N)c(C#N)c32)n1 [II-201]
6.81,> 158,> 147,7.02,0.1,60,7.01,,CO[C@H]1CCN(C)[C@@H]1[C@H](C)Oc1cc(N2CCNC3(CC3)C2)nc(-c2noc3c2CCC[C@@]32CCCc3sc(N)c(C#N)c32)n1 [II-184]
6.87,> 144,17,6.43,0.1,76,6.61,,C[C@H](Oc1cc(-n2cc3c(n2)CNC3)nc(-c2noc3c2CCC[C@@]32CCCc3sc(N)c(C#N)c32)n1)[C@@H]1C[C@@H](F)CN1C [II-154]
7.15,> 149,115,6.95,0.17,39,6.99,,C[C@H](Oc1cc(-n2cc3c(n2)CN(C)C3)nc(-c2noc3c2CCC[C@@]32CCCc3sc(N)c(C#N)c32)n1)[C@@H]1CCCN1C [II-174]
6.65,> 140,119,6.87,0.14,46,6.88,,CO[C@@H]1C[C@@H]([C@H](C)Oc2cc(N3CCNC4(CC4)C3)nc(-c3noc4c3CCC[C@@]43CCCc4sc(N)c(C#N)c43)n2)N(C)C1 [II-187]
6.41,> 134,< 1,6.54,0.09,40,6.55,,[2H]C([2H])([2H])N1C[C@H](F)C[C@H]1[C@H](C)Oc1cc(N2CCN(C([2H])([2H])[2H])C3(CC3)C2)nc(-c2noc3c2CCC[C@@]32CCCc3sc(N)c(C#N)c32)n1 [II-207]
5.92,> 140,< 1,5.79,0.01,63,5.88,,C[C@H](Oc1nc(-c2noc3c2CCC[C@@]32CCCc3sc(N)c(C#N)c32)nc(N2CCN(C)C3(CC3)C2)c1Cl)[C@@H]1C[C@@H](F)CN1C [II-176]
6.48,> 147,8,6.29,0.02,,6.52,,CCN1CCN(c2cc(O[C@@H](C)[C@@H]3C[C@@H](F)CN3C)nc(-c3noc4c3CCC[C@@]43CCCc4sc(N)c(C#N)c43)n2)CC12CC2 [II-185]
